According to patent publication US20030215462A1, “Use of UGT inhibitors to increase bioavailability” (priority 2001, published 2003):
In brackets after ≈: the same amount, converted by molar mass. Several values for one entry are separate records, joined by “and”; a condition that tells them apart may be missing. Equal values may be shown once.

Tests used:
human liver microsomes [1] = assay: Glucuronidation of UGT substrates by human liver microsomes; conditions: for substrate loss, 2ME2: 2ME2 50 μM
[2] = system: pooled human jejunum microsomes; assay: Glucuronidation of UGT substrates by pooled human jejunum microsomes; conditions: jejunum HJ61, 50 μg/ml; 2ME2 50 μM
[3] = molecular target: T1, UGT enzymes of human liver microsomes (Homo sapiens, UniProt P16662); assay: Inhibition of zidovudine glucuronidation in human liver microsomes; type: biochemical; conditions: liver lot 062101
T1 construct: residual metabolism (percentage of control), zidovudine glucuronidation; other: liver lot 062101; residual metabolism (percentage of control), zidovudine glucuronidation; residual metabolism (percentage of control)
T1 sequence (P16662 1-529): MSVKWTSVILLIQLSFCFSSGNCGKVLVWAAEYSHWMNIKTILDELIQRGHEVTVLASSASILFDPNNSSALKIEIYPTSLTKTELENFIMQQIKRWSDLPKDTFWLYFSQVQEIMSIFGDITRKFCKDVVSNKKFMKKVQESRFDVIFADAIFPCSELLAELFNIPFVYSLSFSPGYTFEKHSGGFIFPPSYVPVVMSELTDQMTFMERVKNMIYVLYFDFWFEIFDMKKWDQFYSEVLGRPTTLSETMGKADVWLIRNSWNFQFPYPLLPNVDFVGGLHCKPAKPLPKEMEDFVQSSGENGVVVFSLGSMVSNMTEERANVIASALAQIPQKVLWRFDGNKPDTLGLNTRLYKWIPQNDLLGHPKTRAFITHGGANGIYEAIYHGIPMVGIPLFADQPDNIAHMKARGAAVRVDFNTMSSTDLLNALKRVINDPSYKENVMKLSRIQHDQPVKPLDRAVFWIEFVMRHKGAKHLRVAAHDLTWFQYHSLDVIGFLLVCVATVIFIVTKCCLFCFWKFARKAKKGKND
Protocol: Compounds were eluted using a binary solvent gradient system where solvent A was dilute phosphoric acid (pH 3) and solvent B was acetonitrile.
Standardized incubations utilized 500 μM zidovudine substrate, 1 mg/ml microsomal protein, 5 mM UDPGA and a 30 min incubation time. […] Int.

[4] = Solubility in microsomal incubation mixtures
[5] = system: UGT enzymes of pooled human jejunum microsomes; assay: Inhibition of 2ME2 glucuronidation (MG1) in pooled human jejunum microsomes; type: biochemical; conditions: jejunum HJ61, 2ME2 50 μM
From the text: (§1) Compounds were eluted using a binary solvent gradient system where solvent A was dilute phosphoric acid (pH 3) and solvent B was 80:20 acetonitrile-methanol. […] Detection was at 280 nm.

[6] = system: UGT enzymes of human liver microsomes; assay: Inhibition of 2ME2 glucuronidation (MG1, MG2) in human liver microsomes; type: biochemical; conditions: liver 062101, 2ME2 50 μM
From the text: as §1

[7] = system: T2, UGT enzymes of human liver microsomes; assay: as above; type: biochemical; conditions: liver 062101, 2ME2 50 μM
T2 construct: other: liver 062101
From the text: as §1

in vivo = conditions: female, Sprague-Dawley, rat, po, 10 mg/kg
Protocol: Female Sprague-Dawley rats (220-250 g body weight) with cannulae inserted into the jugular vein were purchased from Hilltop Animals Inc. (Scottsdale, Pa.). Catheter patency was maintained using a heparin lock. Animals were individually housed at 18-26° C. and allowed free movement and access to water. Rats were fed standard Laboratory Rodent Diet during a minimum 1-day acclimatization period but were fasted from at least 8 h prior to dose administration and were not administered food throughout the study.
Immediately prior to treatment, the ethanol was removed by nitrogen evaporation and rats were administered 1 ml/kg of each emulsion using a standard gavage needle. […] Blood volume was replaced with saline after each sample. Whole blood samples were collected in Microtainer® tubes (Becton-Dickinson, Franklin Lakes, N.J.) containing sodium EDTA anti-coagulant. Erythrocytes were precipitated by centrifugation (2800 rpm×10-20 min) and plasma samples were stored in the freezer prior to extraction and analysis.
Plasma samples (100 μl) were extracted by vortex mixing for 60 sec with 200 μl extraction solvent (80% acetonitrile 20% 2 mM NH4OAc pH 9) and 20 μl internal standard solution (1 μM tamoxifen in methanol). […] The lower limit of quantitation was 2 ng/ml.

human liver microsomes [8] = conditions: cited from earlier work
[9] = humans; cited from earlier work
[10] = system: T3, UGT enzymes of human liver microsomes; assay: Inhibition of 7-HFC glucuronidation in human liver microsomes; type: biochemical; conditions: inhibitor 500 μM; 7-HFC 50 μM, human liver microsomes 100 μg/ml, 15 min
T3 construct: percentage of control metabolism, 7-HFC glucuronidation; percentage of control metabolism, 7-HFC glucuronidation

[11] = system: UGT enzymes of human liver microsomes; assay: Inhibition of raloxifene glucuronidation (G1, G2) in human liver microsomes; type: biochemical
From the text: Compounds were eluted using a binary solvent gradient system. […] Solvent B was methanol. […] Detection was at 280 nm.

SMILES: COc1cc2c(cc1O)CC[C@@H]1[C@@H]2CC[C@]2(C)[C@@H](O)CC[C@@H]12 [2ME2, 2-Methoxyestradiol]
- total loss of 2ME2 from liver microsomal incubation after 60 min (human liver microsomes [1]; 50 μM substrate): 42%
- substrate loss, 2ME2 (human liver microsomes [1]; liver lot 032101, 250 μg/ml): 1,573 ± 243 pmol/min/mg
- substrate loss, 2ME2 (human liver microsomes [1]; liver lot 062101, 250 μg/ml): 1,035 ± 52 pmol/min/mg
- NADPH-dependent metabolism, in words (cytochrome(s) P450): Negligible NADPH-dependent metabolism
- substrate loss, 2ME2 [2]: 19,797 ± 631 pmol/min/mg

SMILES: O=C(c1ccc(OCCN2CCCCC2)cc1)c1c(-c2ccc(O)cc2)sc2cc(O)ccc12 [Raloxifene, raloxifene, reference compound]
- residual metabolism (percentage of control), zidovudine glucuronidation ([3]; inhibitor 100 μM): 76 (3) %
- residual metabolism (percentage of control), zidovudine glucuronidation ([3]; inhibitor 200 μM): 32 (4) %
- solubility in the microsomal incubation ([4]; 500 μM): insoluble
- solubility ([4]; microsomal incubation mixtures): 100 µM (≈ 47.4 µg/mL)
- residual metabolism (% of control), 2ME2 MG1 ([5]; inhibitor 5 μM): 73 (1) %
- residual metabolism (% of control), 2ME2 MG1 ([5]; inhibitor 10 μM): 58 (1) %
- residual metabolism (% of control), 2ME2 MG1 ([5]; inhibitor 25 μM): 31 (3) %
- residual metabolism (% of control), 2ME2 MG1 ([5]; inhibitor 50 μM): 17 (0) %
- residual metabolism (% of control), 2ME2 MG1 ([5]; inhibitor 100 μM): 12 (0) %
- residual metabolism (% of control), 2ME2 MG1 ([6]; inhibitor 5 μM): 77 (1) %
- residual metabolism (% of control), 2ME2 MG2 ([6]; inhibitor 5 μM): 98 (1) %
- residual metabolism (% of control), 2ME2 MG1 ([6]; inhibitor 10 μM): 63 (1) %
- residual metabolism (% of control), 2ME2 MG2 ([6]; inhibitor 10 μM): 88 (0) %
- residual metabolism (% of control), 2ME2 MG1 ([7]; inhibitor 25 μM): 42 (0) %
- residual metabolism (% of control), 2ME2 MG2 ([7]; inhibitor 25 μM): 70 (0) %
- residual metabolism (% of control), 2ME2 MG1 ([7]; inhibitor 50 μM): 32 (2) %
- residual metabolism (% of control), 2ME2 MG2 ([7]; inhibitor 50 μM): 41 (2) %
- residual metabolism (% of control), 2ME2 MG1 ([7]; inhibitor 100 μM): 24 (2) %
- residual metabolism (% of control), 2ME2 MG2 ([7]; inhibitor 100 μM): 20 (1) %
- AUC(0-t) (in vivo; Raloxifene AUC0-8): 77 ± 61 ng·h/mL
- AUC(0-t) (in vivo; Raloxifene AUC0-24): 114 ± 90 ng·h/mL

SMILES: Cc1cn([C@H]2C[C@H](N=[N+]=[N-])[C@@H](CO)O2)c(=O)[nH]c1=O [Zidovudine, zidovudine, reference compound]
- Km (human liver microsomes [8]): 3000 to 5000 µM
- absolute oral bioavailability [9]: 65% and 52-75%
- % of control metabolism (SD, n = 3), 7-HFC glucuronidation [10]: 99 (1) %
- % of control metabolism (SD, n = 3), raloxifene glucuronide G1 [11]: 93 (3) %
- % of control metabolism (SD, n = 3), raloxifene glucuronide G2 [11]: 93 (1) %
